Experimental data as given in patent US6486156B1, “Chemical compounds” (Astrazeneca AB, priority 1998, dated 2002).

Target: T1, Farnesyl protein transferase (FPT) (Homo sapiens, UniProt P49354+P49356)
T1 construct: partially purified from human placenta by ammonium sulphate fractionation; from tissue; host or cells: human placenta
Experiment: In-vitro assay (test (i)): inhibition of farnesylation of Ki-ras with radiolabelled farnesyl pyrophosphate
Assay type: biochemical
Conditions: FPT partially purified from human placenta; substrate Kras (CVIM C-terminal sequence)
Protocol: The following stock solutions were used and the assays were conducted in 96 well plates: TRIS Buffer (500 mM TRIS, 5 mM MgCl2.6H2O, pH=8.0); Farnesyl pyrophosphate (6.4 mg/ml); Aprotinin (1.9 mg/ml); Ki-ras (0.5 mg/ml, stored at −80° C.); Acid ethanol (850 ml absolute ethanol+150 ml concentrated HCl).
Farnesyl protein transferase (FPT) was partially purified from human placenta by ammonium sulphate fractionation followed by a single Q-Sepharose™ (Pharmacia, Inc) anion exchange chromatography essentially as described by Ray and Lopez-Belmonte (Ray K P and Lopez-Belmonte J (1992) Biochemical Society Transactions 20 494-497). The substrate for FPT was Kras (CVIM C-terminal sequence). The cDNA for oncogenic val 12 variant of human c-Ki-ras-2 4B was obtained from the plasmid pSW11-1 (ATCC). This was then subcloned into the polylinker of a suitable expression vector e.g. pIC147. The Kras was obtained after expression in the E. coli strain, BL21. […]
Assays were performed in 96 well plates as follows: 10 μl of test compound solution was added to each well. […] Precipitated protein was then collected onto glass fibre filter mats (B) using a Tomtec™ cell harvester and tritiated label was measured in a Wallac™ 1204 Betaplate scintillation counter. […]

CSCC[C@H](NC(=O)c1ccc(/C=C/Cn2ccnc2)cc1-c1ccc(Cl)cc1Cl)C(=O)O [Example 29, (2S)-2-{4-[(E)-3-(Imidazol-1-yl)prop-1-en-1-yl]-2-(2,4-dichlorophenyl)benzamido}-4-methylsulfanylbutyric Acid]
IC50: ~0.4 nM
